Results published in patent US7071231B2, “Naphthalene ureas as glucose uptake enhancers” (Telik, Inc., priority 1999, dated 2006).

Experiments:
[1] = biological target: CYP2C19 (Homo sapiens, UniProt P33261); assay: P450 interactions: CYP2C19 inhibition; assay type: in vitro ADME; details: human cytochromes P450
Description: A major pathway for elimination of drugs from the body, which may limit their effectiveness, is the cytochrome P450 system of the liver.

[2] = test system: STZ/HFD rat; assay: Blood glucose determination in the STZ/HFD rat model of Type 2 diabetes; assay type: in vivo; details: STZ/HFD rat
Description: Blood Glucose Determination in the STZ/HFD Rat Model of Type 2 Diabetes
Representative compounds were also profiled in genetically normal rats given a high-fat diet followed by treatment with a low dose of streptozotocin (STZ/HFD). This treatment regimen recreates both the insulin resistance and the hyperglycemia seen in human Type 2 diabetes. Male CD rats (Jackson Labs, Bar Harbor Me.) were maintained according to NIH guidelines, housed two per cage, and fed either standard lab chow (Tekland Laboratory Diets, James Grain, San Jose, Calif.) or the same chow supplemented with chocolate bars, cookies, and potato chips such that their final diet contained 30% fat by weight (high-fat diet; HFD). After two weeks of this diet, the animals were given an injection of freshly-prepared streptozotocin (35 mg/kg, i.p.) and continued on the HFD. Animals that achieved glucose levels of 190 to 380 mg/dl were used in this study. At the end of the 12-hour light/dark cycle, and just prior to the experiment, the animals were moved to new cages with no food available until 4 hours after treatment. The compound or vehicle (PBS) was given p.o. by gavage, and blood was sampled by approved IACUC protocol using tail cap method. Glucose was determined using the Glucometer Elite (Bayer, Elkhart, Ind.).
The reduction was maximal (20%) 4 hours after the administration of Compound 15.

[3] = test system: db/db mouse; assay: Blood glucose level determination in db/db mouse; assay type: in vivo; details: compound intraperitoneally, with or without 0.01U insulin s.c.; 0-4 hr (FIGS. 8 and 9)
Method: Blood Glucose Level Determination in db/db Mouse.
An accepted model for Type 2 diabetes which has been used to establish the potential anti-diabetic activity of compounds is the db/db mouse. Seven to 9 week old male db/db mice (Jackson Laboratories, Bar Harbor, Me.), were used to the study of the effects of compounds on blood glucose levels. Animals were kept in a 12 h/12 h light/dark cycle, and experiments were initiated immediately after the dark period (7:00 a.m.). Food was removed at this time and returned after the final blood glucose measurement was taken.
Insulin (0.5U/ml, Humulin R, Catalog HI-201, Lilly, Indianapolis, Ind.) was prepared by diluting 100U/mL stock insulin 1:200 with PBS (phosphate buffered saline, Gibco, BRL). Compounds were prepared in a vehicle of either PBS or 20% DMSO in PBS.
Five to 10 animals (average weight 40–50 g) were used in each treatment condition. The animals were injected subcutaneously with either 0.01U insulin in PBS or PBS alone, followed by 0.1 mL of compound or its vehicle delivered intraperitoneally. Blood samples were taken 0 min, 15 min, 30 min, 1 hr, 2 hr and 4 hr after the administration of the drug or vehicle by tail bleeding. Glucose measurements were made with a Glucometer and Glucose strips (Bayer). […]

[4] = biological target: T1, β-kinase domain of the human insulin receptor (CKD) (Homo sapiens, UniProt P06213); assay: 32P-cytoplasmic kinase domain (CKD) autophosphorylation assay; assay type: biochemical; details: phosphorylation of CKD expressed as % of the vehicle level; 10 minutes at room temperature; compound concentration not given
T1 construct: The complete β-kinase domain of the human insulin receptor (CKD) was expressed in, and purified from, baculovirus; made in house
T1 sequence (P06213 980-1382 limits assumed): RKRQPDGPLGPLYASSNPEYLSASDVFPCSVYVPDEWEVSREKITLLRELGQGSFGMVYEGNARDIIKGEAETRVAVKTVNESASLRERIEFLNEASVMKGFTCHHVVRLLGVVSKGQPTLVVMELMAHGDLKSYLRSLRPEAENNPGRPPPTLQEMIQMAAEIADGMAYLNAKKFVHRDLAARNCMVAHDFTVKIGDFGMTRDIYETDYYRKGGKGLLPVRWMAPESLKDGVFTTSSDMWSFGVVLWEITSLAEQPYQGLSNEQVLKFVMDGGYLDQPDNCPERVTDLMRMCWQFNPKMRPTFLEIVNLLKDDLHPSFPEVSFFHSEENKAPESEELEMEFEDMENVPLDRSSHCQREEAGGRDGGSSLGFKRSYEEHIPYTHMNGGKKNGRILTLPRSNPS
Procedure, shortened: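 Baculovirus-expressed CKD (4.0 μg/ml) in 29 mM HEPES pH 7.6, 10 mM MgCl2, 2 mM MnCl2 with 50 μM ATP plus ^32P-ATP, 1% DMSO, 10 min at room temperature. EDTA stop, SDS-PAGE, CKD-band radioactivity by phosphorimaging or scintillation counting; activity as % of vehicle phosphorylation.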

[5] = test system: male CD rats; assay: Acute toxicity in CD rats; assay type: in vivo; details: p.o., 300 mg/kg in PBS
Method: Compound 15 was administered in PBS vehicle to male db/db mice (i.p.) and male CD rats (p.o.) at 300 mg/kg, which is approximately 10 times its effective dose.

Sequence of CYP2C19 (P33261 whole entry): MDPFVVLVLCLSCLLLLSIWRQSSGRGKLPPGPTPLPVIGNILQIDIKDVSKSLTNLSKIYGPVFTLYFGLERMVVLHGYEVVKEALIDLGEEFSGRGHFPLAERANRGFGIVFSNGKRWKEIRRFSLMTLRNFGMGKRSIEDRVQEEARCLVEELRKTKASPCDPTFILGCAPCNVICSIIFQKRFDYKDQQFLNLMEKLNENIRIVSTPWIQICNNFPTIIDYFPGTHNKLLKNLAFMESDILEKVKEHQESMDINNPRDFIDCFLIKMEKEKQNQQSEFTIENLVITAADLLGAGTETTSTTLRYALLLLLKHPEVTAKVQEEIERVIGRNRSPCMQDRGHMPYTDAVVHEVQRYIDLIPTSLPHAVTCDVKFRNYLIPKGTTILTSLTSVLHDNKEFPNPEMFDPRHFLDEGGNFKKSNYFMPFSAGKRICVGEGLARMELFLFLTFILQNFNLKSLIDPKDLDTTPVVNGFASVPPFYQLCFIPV

In the case of `O=C(Nc1ccc2c(O)cc(S(=O)(=O)Nc3cccc(S(=O)(=O)O)c3)cc2c1)Nc1ccc2c(O)cc(S(=O)(=O)Nc3cccc(S(=O)(=O)O)c3)cc2c1` [Compound 15, 3-{[(4-hydroxy-7-{[N-(5-hydroxy-7-{[(3-sulfophenyl)amino]sulfonyl}(2-naphthyl))carbamoyl]amino}-2-naphthyl)sulfonyl]amino}benzenesulfonic acid], the “inhibition of catalytic activity of CYP2C19” value [1] is reported as “did not inhibit”, the “maximal reduction in blood glucose levels” value ([2]; p.o. by gavage (FIG. 11)) is reported as 20% and the “time of maximal reduction in blood glucose after administration” value ([2]; p.o. by gavage (FIG. 11)) is reported as 4 h. The “onset and duration of reduction in blood glucose levels” value ([2]; p.o. by gavage, 6 hour experiment (FIG. 11)) was “beginning one hour after administration and persisting for the entire 6 hours of the experiment”, the “blood glucose levels in db/db mice” value [3] was “acts in an insulin-independent manner to lower blood glucose levels” and the “% Activity vs. Control” value [4] was 125%. For the same compound, the acute toxicity [5] was “No acute toxicity was seen”.
